Read-outs that look alike come from different tables or passages of the source. Numbered stars: 1 amine (or outer) side, 2 acyl side, 3 side chain; on linkers, the order of the positions; unused ones are H or OH. Square brackets hold non-standard residues; d marks the D form. Side chains are listed from the residue outwards. Peptide text beside a SMILES is read from it. * marks the point of attachment. C18 diacid = O=C(O)CCCCCCCCCCCCCCCCC(=O)*; γGlu = O=C(O)[C@H](CCC(=O)[*:2])N[*:1]; αMeF = C[C@](N)(Cc1ccccc1)C(=O)O; αMeK = C[C@](N)(CCCCN)C(=O)O; αMeS = C[C@](N)(CO)C(=O)O; AEEA = NCCOCCOCC(=O)O; Aib = CC(C)(N)C(=O)O
How the values were obtained:
Type in all cases: cell-based
[1] = target: T1, human glucagon receptor (GCGR) (Homo sapiens, UniProt P47871); assay: cAMP assay, human GCGR cells; conditions: cAMP assay
T1 construct: expressed in transfected cells
Summary of the method: (§1)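 Peptide-stimulated cAMP measured by two-step HTRF after a 30 min room-temperature incubation with receptor-expressing cells (hGLP-1R, hGIPR at 1×10^5 cells/ml; hGCGR at 2×10^5 cells/ml). Duplicate dilutions; EC50 from 4-parameter logistic fit of % Delta F.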

GLP-1R (INS1e assay) = target: T2, GLP-1R (INS1e assay) (Rattus norvegicus, UniProt P32301); assay: INS1e assay, cAMP activity at GLP-1R; conditions: mono-lipidated peptides
T2 construct: endogenous in cells; host or cells: INS-1E cells
T2 sequence (P32301 22-463): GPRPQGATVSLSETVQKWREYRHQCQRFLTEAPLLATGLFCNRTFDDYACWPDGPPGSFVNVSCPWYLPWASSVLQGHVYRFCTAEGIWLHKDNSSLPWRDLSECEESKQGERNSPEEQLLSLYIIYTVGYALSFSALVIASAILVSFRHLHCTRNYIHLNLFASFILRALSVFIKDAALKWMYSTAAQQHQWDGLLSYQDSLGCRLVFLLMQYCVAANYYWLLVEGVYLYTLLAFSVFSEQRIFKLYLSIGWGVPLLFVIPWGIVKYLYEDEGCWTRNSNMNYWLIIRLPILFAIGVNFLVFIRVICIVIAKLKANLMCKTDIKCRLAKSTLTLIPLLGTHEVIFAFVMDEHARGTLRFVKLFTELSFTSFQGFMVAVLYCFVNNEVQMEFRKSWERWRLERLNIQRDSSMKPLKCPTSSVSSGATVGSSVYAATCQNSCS
Summary of the method: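 cAMP was quantified by two-step HTRF, using anti-cAMP cryptate donor and cAMP-d2 acceptor, each diluted 1/20 in conjugate and lysis buffer. EC50 values of the synthetic peptides were derived from the cAMP readout.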

[2] = target: T3, human glucose-dependent insulinotropic peptide receptor (GIPR) (Homo sapiens, UniProt P48546); assay: cAMP assay, human GIPR cells; conditions: cAMP assay
T3 construct: expressed in transfected cells
T3 sequence (P48546 22-466): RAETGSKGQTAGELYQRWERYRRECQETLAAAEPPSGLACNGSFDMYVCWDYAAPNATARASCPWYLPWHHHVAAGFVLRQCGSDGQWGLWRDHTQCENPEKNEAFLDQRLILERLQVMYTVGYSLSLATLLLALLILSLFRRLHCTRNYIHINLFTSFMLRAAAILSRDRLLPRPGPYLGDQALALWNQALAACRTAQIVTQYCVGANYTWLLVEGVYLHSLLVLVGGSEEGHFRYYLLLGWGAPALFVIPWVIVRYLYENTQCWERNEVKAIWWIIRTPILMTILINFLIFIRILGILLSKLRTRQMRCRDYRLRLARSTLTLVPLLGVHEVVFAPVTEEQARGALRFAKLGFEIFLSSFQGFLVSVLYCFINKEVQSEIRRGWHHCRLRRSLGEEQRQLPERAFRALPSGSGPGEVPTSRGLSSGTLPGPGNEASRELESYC
Summary of the method: as §1

[3] = target: T4, human GLP-1 receptor (GLP-1R) (Homo sapiens, UniProt P43220); assay: cAMP assay, human GLP-1R cells
T4 construct: expressed in transfected cells
Summary of the method: as §1

[4] = first determination (n1), read-out: Primary assay EC50 Gluc-R (n1)
[5] = second determination (n2), read-out: Primary assay EC50 Gluc-R (n2)
[6] = mean of n1 and n2, read-out: INS1e assay EC50 Mean pM GLP-1R
[7] = replicate n1, read-out: INS1e assay EC50 GLP-1R n1
[8] = replicate n2, read-out: INS1e assay EC50 GLP-1R n2
[9] = first determination (n1), read-out: Primary assay EC50 GIP-R (n1)
[10] = second determination (n2), read-out: Primary assay EC50 GIP-R (n2)
[11] = cAMP assay, first determination (n1), read-out: Primary assay EC50 GLP-1R n1
[12] = cAMP assay, second determination (n2), read-out: Primary assay EC50 GLP-1R n2
[13] = mean of n1 and n2, read-out: Mean pM GLP-1R

T4 sequence (P43220 24-463): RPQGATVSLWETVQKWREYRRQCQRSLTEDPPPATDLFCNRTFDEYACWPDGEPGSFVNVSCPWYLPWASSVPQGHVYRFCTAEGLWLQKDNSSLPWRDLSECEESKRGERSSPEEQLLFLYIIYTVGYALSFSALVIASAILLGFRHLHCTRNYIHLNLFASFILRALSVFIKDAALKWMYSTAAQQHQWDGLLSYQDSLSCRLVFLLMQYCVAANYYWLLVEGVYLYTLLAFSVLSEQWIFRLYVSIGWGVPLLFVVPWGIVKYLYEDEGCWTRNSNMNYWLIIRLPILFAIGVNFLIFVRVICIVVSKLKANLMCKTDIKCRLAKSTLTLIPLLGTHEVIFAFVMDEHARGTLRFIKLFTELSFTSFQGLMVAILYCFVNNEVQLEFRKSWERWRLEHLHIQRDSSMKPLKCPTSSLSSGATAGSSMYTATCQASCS
T1 sequence (P47871 26-477): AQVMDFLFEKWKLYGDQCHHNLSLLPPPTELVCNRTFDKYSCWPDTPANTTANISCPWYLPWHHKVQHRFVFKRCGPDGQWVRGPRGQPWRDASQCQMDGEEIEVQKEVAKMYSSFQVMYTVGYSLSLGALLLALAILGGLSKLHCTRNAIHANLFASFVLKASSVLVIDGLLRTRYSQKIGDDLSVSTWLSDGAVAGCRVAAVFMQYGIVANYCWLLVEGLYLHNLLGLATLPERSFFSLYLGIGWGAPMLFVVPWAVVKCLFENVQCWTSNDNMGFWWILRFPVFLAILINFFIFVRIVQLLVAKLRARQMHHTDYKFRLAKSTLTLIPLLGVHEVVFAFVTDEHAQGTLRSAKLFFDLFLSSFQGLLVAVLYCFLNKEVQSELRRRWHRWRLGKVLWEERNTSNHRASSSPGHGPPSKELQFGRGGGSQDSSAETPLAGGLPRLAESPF

Structure (SMILES)	EC50 [1, 4]	EC50 [1, 5]	EC50 (GLP-1R (INS1e assay); [6])	EC50 (GLP-1R (INS1e assay); [7])	EC50 (GLP-1R (INS1e assay); [8])	EC50 [2, 9]	EC50 [2, 10]	EC50 [3, 11]	EC50 [3, 12]	EC50 [3, 13]
CC[C@H](C)[C@H](NC(=O)[C@](C)(Cc1ccccc1)NC(=O)[C@H](CCC(=O)O)NC(=O)[C@](C)(CCCCN)NC(=O)[C@H](C)NC(=O)[C@H](C)NC(=O)[C@H](CCC(=O)O)NC(=O)CNC(=O)[C@H](CCC(=O)O)NC(=O)[C@H](CC(C)C)NC(=O)[C@](C)(Cc1ccccc1)NC(=O)[C@H](CO)NC(=O)[C@](C)(CO)NC(=O)[C@@H](NC(=O)[C@H](CC(=O)O)NC(=O)[C@H](CO)NC(=O)[C@@H](NC(=O)[C@](C)(Cc1ccccc1)NC(=O)[C@H](CO)NC(=O)CNC(=O)[C@H](CCC(=O)O)NC(=O)C(C)(C)NC(=O)[C@@H](N)Cc1c[nH]cn1)[C@@H](C)O)C(C)C)C(=O)N[C@@H](C)C(=O)N[C@@H](CCCCNC(=O)COCCOCCNC(=O)COCCOCCNC(=O)CC[C@H](NC(=O)CCCCCCCCCCCCCCCCC(=O)O)C(=O)O)C(=O)N[C@H](C(=O)N[C@H](C(=O)N[C@@](C)(CCCCN)C(=O)NCC(=O)NCC(N)=O)C(C)C)C(C)C [compound 104]	≥ 26 nM	≥ 25.6 nM	331 pM	391 pM	270 pM	≥ 26 nM	≥ 25.6 nM	5.9 pM		
CC[C@H](C)[C@H](NC(=O)[C@H](CCCCNC(=O)COCCOCCNC(=O)COCCOCCNC(=O)CC[C@H](NC(=O)CCCCCCCCCCCCCCCCC(=O)O)C(=O)O)NC(=O)[C@H](CCC(=O)O)NC(=O)[C@](C)(CCCCN)NC(=O)[C@H](C)NC(=O)[C@H](C)NC(=O)[C@H](CCC(=O)O)NC(=O)CNC(=O)[C@H](CCC(=O)O)NC(=O)[C@H](CC(C)C)NC(=O)[C@](C)(Cc1ccccc1)NC(=O)[C@H](CO)NC(=O)[C@](C)(CO)NC(=O)[C@@H](NC(=O)[C@H](CC(=O)O)NC(=O)[C@H](CO)NC(=O)[C@@H](NC(=O)[C@](C)(Cc1ccccc1)NC(=O)[C@H](CO)NC(=O)CNC(=O)[C@H](CCC(=O)O)NC(=O)C(C)(C)NC(=O)[C@@H](N)Cc1c[nH]cn1)[C@@H](C)O)C(C)C)C(=O)N[C@@H](C)C(=O)N[C@@](C)(Cc1ccccc1)C(=O)N[C@H](C(=O)N[C@H](C(=O)N[C@@](C)(CCCCN)C(=O)NCC(=O)NCC(N)=O)C(C)C)C(C)C [compound 107]	≥ 26 nM	≥ 25.6 nM	8460 pM	5230 pM	11700 pM	≥ 26 nM	≥ 25.6 nM	83 pM	70.5 pM	77 pM
CC[C@H](C)[C@H](NC(=O)[C@](C)(Cc1ccccc1)NC(=O)[C@H](CCCCNC(=O)COCCOCCNC(=O)COCCOCCNC(=O)CC[C@H](NC(=O)CCCCCCCCCCCCCCCCC(=O)O)C(=O)O)NC(=O)[C@](C)(CCCCN)NC(=O)[C@H](C)NC(=O)[C@H](C)NC(=O)[C@H](CCC(=O)O)NC(=O)CNC(=O)[C@H](CCC(=O)O)NC(=O)[C@H](CC(C)C)NC(=O)[C@](C)(Cc1ccccc1)NC(=O)[C@H](CO)NC(=O)[C@](C)(CO)NC(=O)[C@@H](NC(=O)[C@H](CC(=O)O)NC(=O)[C@H](CO)NC(=O)[C@@H](NC(=O)[C@](C)(Cc1ccccc1)NC(=O)[C@H](CO)NC(=O)CNC(=O)[C@H](CCC(=O)O)NC(=O)C(C)(C)NC(=O)[C@@H](N)Cc1c[nH]cn1)[C@@H](C)O)C(C)C)C(=O)N[C@@H](C)C(=O)N[C@@](C)(Cc1ccccc1)C(=O)N[C@H](C(=O)N[C@H](C(=O)N[C@@](C)(CCCCN)C(=O)NCC(=O)NCC(N)=O)C(C)C)C(C)C [compound 108] (H-H[Aib]EGS[αMeF]TSDV[αMeS]S[αMeF]LEGEAA[αMeK]K([AEEA-AEEA-γGlu-C18 diacid])[αMeF]IA[αMeF]VV[αMeK]GG-NH2; N-terminus assumed)	≥ 25 nM	≥ 25.4 nM	248 pM	38 pM	458 pM	≥ 25 nM	≥ 25.4 nM	3.8 pM	3.46 pM	4 pM
CC[C@H](C)[C@H](NC(=O)[C@](C)(Cc1ccccc1)NC(=O)[C@H](CCC(=O)O)NC(=O)[C@](C)(CCCCN)NC(=O)[C@H](C)NC(=O)[C@H](CCCCNC(=O)COCCOCCNC(=O)COCCOCCNC(=O)CC[C@H](NC(=O)CCCCCCCCCCCCCCCCC(=O)O)C(=O)O)NC(=O)[C@H](CCC(=O)O)NC(=O)CNC(=O)[C@H](CCC(=O)O)NC(=O)[C@H](CC(C)C)NC(=O)[C@](C)(Cc1ccccc1)NC(=O)[C@H](CO)NC(=O)[C@](C)(CO)NC(=O)[C@@H](NC(=O)[C@H](CC(=O)O)NC(=O)[C@H](CO)NC(=O)[C@@H](NC(=O)[C@](C)(Cc1ccccc1)NC(=O)[C@H](CO)NC(=O)CNC(=O)[C@H](CCC(=O)O)NC(=O)C(C)(C)NC(=O)[C@@H](N)Cc1c[nH]cn1)[C@@H](C)O)C(C)C)C(=O)N[C@@H](C)C(=O)N[C@@](C)(Cc1ccccc1)C(=O)N[C@H](C(=O)N[C@H](C(=O)N[C@@](C)(CCCCN)C(=O)NCC(=O)NCC(N)=O)C(C)C)C(C)C [compound 111] (H-H[Aib]EGS[αMeF]TSDV[αMeS]S[αMeF]LEGEK([AEEA-AEEA-γGlu-C18 diacid])A[αMeK]E[αMeF]IA[αMeF]VV[αMeK]GG-NH2)	≥ 25 nM	≥ 25 nM	806 pM	501 pM	1110 pM	≥ 25 nM	≥ 25 nM	18 pM		
CC[C@H](C)[C@H](NC(=O)[C@](C)(Cc1ccccc1)NC(=O)[C@H](CCC(=O)O)NC(=O)[C@](C)(CCCCN)NC(=O)[C@H](C)NC(=O)[C@H](C)NC(=O)[C@H](CCCCNC(=O)COCCOCCNC(=O)COCCOCCNC(=O)CC[C@H](NC(=O)CCCCCCCCCCCCCCCCC(=O)O)C(=O)O)NC(=O)CNC(=O)[C@H](CCC(=O)O)NC(=O)[C@H](CC(C)C)NC(=O)[C@](C)(Cc1ccccc1)NC(=O)[C@H](CO)NC(=O)[C@](C)(CO)NC(=O)[C@@H](NC(=O)[C@H](CC(=O)O)NC(=O)[C@H](CO)NC(=O)[C@@H](NC(=O)[C@](C)(Cc1ccccc1)NC(=O)[C@H](CO)NC(=O)CNC(=O)[C@H](CCC(=O)O)NC(=O)C(C)(C)NC(=O)[C@@H](N)Cc1c[nH]cn1)[C@@H](C)O)C(C)C)C(=O)N[C@@H](C)C(=O)N[C@@](C)(Cc1ccccc1)C(=O)N[C@H](C(=O)N[C@H](C(=O)N[C@@](C)(CCCCN)C(=O)NCC(=O)NCC(N)=O)C(C)C)C(C)C [compound 112] (H-H[Aib]EGS[αMeF]TSDV[αMeS]S[αMeF]LEGK([AEEA-AEEA-γGlu-C18 diacid])AA[αMeK]E[αMeF]IA[αMeF]VV[αMeK]GG-NH2; N-terminus assumed)	≥ 25 nM	≥ 25.4 nM	385 pM	294 pM	476 pM	≥ 25 nM	≥ 25.4 nM		5.07 pM	

— patent US10414811B2, “Protease-resistant lipidated GLP-1 analogs” (MEDIMMUNE LIMITED, priority 2015, dated 2019)
